Laboratory results taken from ChEMBL document CHEMBL3880395, “Novel compounds and methods of use thereof” (2003).
Active and inactive are the calls of the source. No cut-off for these calls is given here.

Legend:
[1] = species: Rattus norvegicus; assay: Antiangiogenic activity in Sprague-Dawley rat thoracic aortic rings assessed as inhibition of capillary like tube formation at 0.3 ug/ml for 5 days by MTT/MTS assay; format: functional; conditions: Thoracic aorta
[2] = Anticancer activity against mouse P388 cells implanted in DBA/2J mouse assessed as increase in life span at 200 mg/kg, po administered daily for 4 days measured twice daily during compound dosing; format: functional; conditions: 96 h
[3] = test system: P388; assay: Anticancer activity against mouse P388 cells implanted in po dosed DBA/2J mouse assessed as increase in life span administered daily for 4 days measured twice daily during compound dosing; format: functional, organism-based
[4] = Cytotoxicity against human HONE1 cells assessed as reduction in cell growth after 72 hrs by MTS assay; format: functional, cell-based; conditions: HONE1, 72 h
[5] = Toxicity in athymic nude mouse xenografted in human SW480 cells xenografted assessed as body weight loss at 200 mg/kg, administered via oral gavage daily for 6 weeks measured twice per every week for 70 days; format: organism-based; conditions: in vivo, 1680 h
[6] = Toxicity in DBA/2J mouse implanted with mouse P388 cells assessed as body weight loss at 5 to 400 mg/kg, po administered daily for 4 days measured twice daily during compound dosing; format: organism-based; conditions: in vivo, 96 h
[7] = species: Rattus norvegicus; assay: Antiangiogenic activity in Sprague-Dawley rat thoracic aortic rings assessed as inhibition of capillary like tube formation at 1 ug/ml for 5 days by MTT/MTS assay; format: functional; conditions: Thoracic aorta
[8] = Toxicity in DBA/2J mouse implanted with mouse P388 cells assessed as body weight loss at 25 to 400 mg/kg, po administered daily for 4 days measured twice daily during compound dosing; format: organism-based; conditions: in vivo, 96 h

CCc1cc(Cn2cc(C(=O)C(=O)Nc3cc(C)ns3)c3ccccc32)on1
inhibition [1]: Active

N#Cc1ccc(Cn2cc(C(=O)C(=O)Nc3ccc4ncccc4c3)c3ccccc32)cc1
inhibition [1]: Active

O=C(Nc1ccc2ncccc2c1)C(=O)c1cn(Cc2ccco2)c2ccccc12
inhibition [1]: Active

Cc1cc(Cn2cc(C(=O)C(=O)Nc3cc(C)ns3)c3ccccc32)on1
inhibition [1]: Active | ILS at 200 mg/kg [2]: 100% | ILS [3]: Dose-dependent effect | IC50 [4]: 3 to 4 nM | Activity [5]: Non-Toxic | Activity [6]: Non-Toxic

O=C(Nc1ccc2ncccc2c1)C(=O)c1cn(Cc2cscn2)c2ccccc12
inhibition [1]: Active

Cc1cc(Cn2cc(C(=O)C(=O)Nc3ccc4ncccc4c3)c3ccccc32)on1
inhibition [1]: Active

Cc1cc(NC(=O)C(=O)c2cn(Cc3cc(C(C)C)no3)c3ccccc23)sn1
inhibition [1]: Active

Cc1cc(NC(=O)C(=O)c2cn(Cc3cccs3)c3ccccc23)sn1
inhibition [7]: Active

N#Cc1ccc(Cn2cc(C(=O)C(=O)Nc3ccc(I)cc3)c3ccccc32)cc1
inhibition [1]: Active

Cc1cc(NC(=O)C(=O)c2cn(Cc3ccco3)c3ccccc23)sn1
inhibition [1]: Active

Cc1cc(NC(=O)C(=O)c2cn(Cc3ccsc3)c3ccccc23)sn1
inhibition [1]: Active

O=C(Nc1ccncc1)C(=O)c1cn(Cc2ccc(Cl)cc2)c2ccccc12
inhibition [7]: Active

O=C(Nc1ccc2ncccc2c1)C(=O)c1cn(Cc2ccsc2)c2ccccc12
ILS [3]: Dose-dependent effect | Activity [8]: Non-Toxic

Cc1cc(NC(=O)C(=O)c2cn(Cc3ccno3)c3ccccc23)sn1
inhibition [1]: Active

Cc1cc(Cn2cc(C(=O)C(=O)Nc3ccc(Br)cc3)c3ccccc32)on1
inhibition [1]: Active

COc1ccc(NC(=O)C(=O)c2cn(Cc3ccccc3C#N)c3ccccc23)cc1
inhibition [1]: Active

Cc1cc(NC(=O)C(=O)c2cn(Cc3ccc(C#N)cc3)c3ccccc23)sn1
inhibition [1]: Active | ILS [3]: Dose-dependent effect | Activity [8]: Non-Toxic
